Assay results from patent US9686984B2, “Macrocyclic picolinamides as fungicides” (DOW AGROSCIENCES LLC, priority 2014, dated 2017).
Read-outs that look alike come from different tables or passages of the source.

Key:
Type in all cases: in vivo
Zymoseptoria tritici = test: Leaf Blotch of Wheat (SEPTTR) disease control on wheat seedlings; conditions: for pest or weed control at 121.5 g/ha: Low Volume (121.5 g/H); for pest or weed control at 100 µg/mL: High Volume (100 ppm)
Summary of the method: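 Compounds in acetone/water (1:9, 110 ppm Triton X-100) sprayed to run-off on Yuma wheat seedlings at first-leaf stage, with Septoria tritici spores inoculated before or after treatment. Plants held at 100% RH (dark then lighted dew chamber, 20° C), then in greenhouse at 20° C; % control from disease severity on 1st leaves versus untreated.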

Erysiphe cichoracearum = test: Powdery Mildew of Cucumber (ERYSCI) disease control; conditions: 100 ppm, 1 Day Protectant
Procedure: Technical grades of materials were dissolved in acetone, which were then mixed with nine volumes of water containing 110 ppm Triton X-100. The fungicide solutions were applied onto wheat seedlings using an automated booth sprayer to run-off. All sprayed plants were allowed to air dry prior to further handling. All fungicides were evaluated using the aforementioned method for their activity vs. all target diseases, unless stated otherwise. Wheat leaf blotch and brown rust activity were also evaluated using track spray applications, in which case the fungicides were formulated as EC formulations, containing 0.1% Trycol 5941 in the spray solutions. Wheat plants (variety Yuma) were grown from seed in a greenhouse in 50% mineral soil/50% soil-less Metro mix until the first leaf was fully emerged, with 7-10 seedlings per pot. These plants were inoculated with an aqueous spore suspension of Septoria tritici either prior to or after fungicide treatments. After inoculation the plants were kept in 100% relative humidity (one day in a dark dew chamber followed by two to three days in a lighted dew chamber at 20° C.) to permit spores to germinate and infect the leaf. The plants were then transferred to a greenhouse set at 20° C. for disease to develop. When disease symptoms were fully expressed on the 1st leaves of untreated plants, infection levels were assessed on a scale of 0 to 100 percent disease severity. Percent disease control was calculated using the ratio of disease severity on treated plants relative to untreated plants. Example F: Evaluation of Fungicidal Activity: Powdery Mildew of Cucumber (Erysiphe cichoracearum; Bayer Code […]) Cucumber seedlings (variety Bush Pickle) were grown in soil-less Metro mix, with one plant per pot, and used in the test when 12 to 14 days old. Plants were inoculated with a spore suspension 24 hr following fungicide treatments. After inoculation the plants remained in the greenhouse set at 20° C. until disease was fully expressed. […]

Magnaporthe grisea = conditions: 100 ppm, 1 Day Protectant
Alternaria solani = test: Tomato Early Blight (ALTESO) disease control; conditions: 100 ppm, 1 Day Protectant
Procedure: Technical grades of materials were dissolved in acetone, which were then mixed with nine volumes of water containing 110 ppm Triton X-100. The fungicide solutions were applied onto wheat seedlings using an automated booth sprayer to run-off. All sprayed plants were allowed to air dry prior to further handling. All fungicides were evaluated using the aforementioned method for their activity vs. all target diseases, unless stated otherwise. Wheat leaf blotch and brown rust activity were also evaluated using track spray applications, in which case the fungicides were formulated as EC formulations, containing 0.1% Trycol 5941 in the spray solutions. Wheat plants (variety Yuma) were grown from seed in a greenhouse in 50% mineral soil/50% soil-less Metro mix until the first leaf was fully emerged, with 7-10 seedlings per pot. These plants were inoculated with an aqueous spore suspension of Septoria tritici either prior to or after fungicide treatments. After inoculation the plants were kept in 100% relative humidity (one day in a dark dew chamber followed by two to three days in a lighted dew chamber at 20° C.) to permit spores to germinate and infect the leaf. The plants were then transferred to a greenhouse set at 20° C. for disease to develop. When disease symptoms were fully expressed on the 1st leaves of untreated plants, infection levels were assessed on a scale of 0 to 100 percent disease severity. Percent disease control was calculated using the ratio of disease severity on treated plants relative to untreated plants. Example M: Evaluation of Fungicidal Activity: Tomato Early Blight (Alternaria solani; Bayer Code […]) Tomato plants (variety Outdoor Girl) were propagated in soil-less Metro mix, with each pot having one plant, and used when 12 to 14 days old. Test plants were inoculated with an aqueous spore suspension of Alternaria solani 24 hr after fungicide treatments. […]

[1] = 24 h, 1 Day Protectant, read-out: SEPTTR disease control, 1 DP
[2] = 72 h, 3 Day Curative, read-out: SEPTTR disease control, 3 DC

Compound: CCCC[C@H]1OCC[C@H](NC(=O)c2nccc(OC)c2OC(C)=O)C(=O)O[C@@H](C)[C@@H]1Cc1ccccc1 [Compound 2]
- pest or weed control at 121.5 g/ha (Zymoseptoria tritici; [1]): > 70%
- pest or weed control at 121.5 g/ha (Zymoseptoria tritici; [2]): > 70%
- ERYSCI disease control, 1DP (Erysiphe cichoracearum): B (≦70)
- PYRIOR disease control, 1DP (Magnaporthe grisea): A (>70)
- ALTESO disease control, 1DP (Alternaria solani): B (≦70)

Compound: COc1ccnc(C(=O)N[C@H]2CCO[C@H](Cc3ccccc3)[C@@H](Cc3ccccc3)[C@H](C)OC2=O)c1OC(C)=O [Compound 3]
- pest or weed control at 121.5 g/ha (Zymoseptoria tritici; [1]): > 70%
- pest or weed control at 121.5 g/ha (Zymoseptoria tritici; [2]): > 70%
- ERYSCI disease control, 1DP (Erysiphe cichoracearum): B (≦70)
- PYRIOR disease control, 1DP (Magnaporthe grisea): A (>70)
- ALTESO disease control, 1DP (Alternaria solani): B (≦70)

Compound: CCC[C@H]1OCC[C@H](NC(=O)c2nccc(OC)c2OCOC(C)=O)C(=O)O[C@@H](C)[C@@H]1Cc1ccccc1 [Compound 17]
- pest or weed control at 100 µg/mL (Zymoseptoria tritici; [1]): > 70%
- pest or weed control at 121.5 g/ha (Zymoseptoria tritici; [1]): > 70%
- pest or weed control at 100 µg/mL (Zymoseptoria tritici; [2]): > 70%
- pest or weed control at 121.5 g/ha (Zymoseptoria tritici; [2]): > 70%
- ERYSCI disease control, 1DP (Erysiphe cichoracearum): B (≦70)
- PYRIOR disease control, 1DP (Magnaporthe grisea): A (>70)
- ALTESO disease control, 1DP (Alternaria solani): B (≦70)
